According to article PMC10828988, “Tuning the Softness of the Pendant Arms and the Polyazamacrocyclic Backbone to Chelate the ^203Pb/^212Pb Theranostic Pair” (Inorganic Chemistry, 2024):
“And” between values parts separate entries of the source, which are not always exact repeats. Equal values may be shown once. Read-outs that look alike come from different tables or passages of the source. Marks after values point to notes of the source that are not given here.

Assays:
[1] = Formation kinetics of Pb2+ complexes (UV-Vis / 1H NMR); format: physicochemical; conditions: for Pb^2+ complex formation: below pH = 4, after 2 weeks at room temperature or prolonged heating, UV-Vis; for time to reach equilibrium of Pb^2+ complexation: pH = 5, equimolar ligand and metal concentrations (10^–4 M), room temperature; for ability to complex Pb^2+: pH < 7, 1H NMR of metal-ligand mixtures
Experimental: The formation kinetics of the Pb^2+ complexes was evaluated at room temperature by UV–Vis or ^1H NMR spectroscopy. A typical experiment was performed by mixing equimolar amounts of metal and ligand solutions (final concentrations: 1.0 × 10^–4 M for UV–Vis, 1.0 × 10^–3 M for ^1H NMR) in buffered media at pH = 2 (HCl 10^–2 M), pH = 3.7 (formic/formiate buffer), pH = 5 (acetic/acetate buffer), and pH = 7.4 (2-[4-(2-hydroxyethyl)piperazin-1-yl]ethanesulfonic acid, i.e., HEPES, buffer). To avoid the formation of PbCO3 (Ks = 7.4 × 10^–14), water was boiled before each measurement.
The electronic spectra were collected in the 200–800 nm range at different time points using a Cary 60 UV–Visible spectrophotometer (Agilent) equipped with a 1 cm path length quartz cell. The complexation reactions were monitored by the increase in the absorption peaks diagnostic of the Pb^2+-ligand complex formation at the characteristic wavelength (Table S2) over time. ^1H NMR spectra were recorded on a 400 MHz Bruker Avance III HD spectrometer. All data were collected […] with Topspin 3.5 using standard Bruker processing parameters with Topspin 4.1.1 software. […] Water suppression was carried out with the excitation sculpting pulse scheme.[38]

[2] = Out-of-cell UV-Vis spectrophotometric titrations (stability constants, pPb); format: physicochemical; conditions: for log β, Pb^2+ + L ⇋ [PbL]: UV–Vis spectrophotometric titrations, I = 0.15 M NaNO3, T = 25 °C; for pPb = −log[Pb^2+]free / pPb* (−log of free Pb^2+ plus hydrolysis products): calculated at CPb^2+ = 10^–6 M, Cligand = 10^–5 M, pH = 7.4
Experimental: The ionic strength (I) was fixed to 0.15 M using sodium nitrate (NaNO3) as background electrolytes. All of the experiments described below were repeated at least in triplicate.
UV–Vis spectrophotometric titrations were carried out by the out-of-cell method in the pH range of 0–12 at T = 25 °C. […] A Mettler Toledo pH meter with a glass electrode was used to measure the pH. […] In highly acidic solutions (pH ≪ 2), the pH was computed from the acid concentration (pH = −logCH^+). After the pH adjustment, the vials were sealed, heated to T = 60 °C to ensure complete Pb^2+ complexation, and cooled to room temperature. The absorption spectra were recorded using the same apparatus described for the kinetic measurements (vide supra). The equilibrium was reached when no variations of the electronica spectra or the pH were detected.
All equilibrium data were processed using the least-squares fitting program PITMAP as described in our previous works.[2],[4],[28] The overall equilibrium constants refer to the general equilibria pM^m+ + qH^+ + rL^l– ⇆ MpHqLr^pm+q–rl, where M^m+ represent the metal ion and L^l– represents the deprotonated ligand, and are designated as logβ (βpqr = [MpLqHr]/[M]^p[L]^q[H]^r). The refinements of log β included the previously determined ligand protonation constants and the Pb^2+ hydrolysis products whose equilibrium constants were fixed to the literature values.[27],[39] […] The errors quoted are the standard deviations of the overall stability constants calculated by the PITMAP program.

[3] = Concentration-dependent radiolabeling with [203Pb]Pb2+ (iTLC); conditions: for RCI of [^203Pb]Pb^2+: after 5 min; for RCI of [^203Pb]Pb^2+ / radiochemical incorporation (RCI) of [^203Pb]Pb^2+ / effect of a change in reaction time on RCI: pH = 7, room temperature; for effect of a change in reaction time on RCI: 5 min vs 1 h; for RCI of [^203Pb]Pb^2+ on heating: T = 80 °C; for radiochemical incorporation of [^203Pb]Pb^2+: room temperature, 5 min reaction time, chelator concentration as low as 10^–5 M
Experimental: Water replaced the ligands in the negative control. All of the radiolabeling for the cyclen-based derivatives was performed at room temperature and monitored at 5 min and 1 h time points whereas heating at T = 80 °C was also employed for TACD3S, TRI4S, and TE4S. All radiolabeling reactions were repeated at least in triplicate.
Radiochemical incorporation (RCI) was determined via instant thin-layer chromatography (iTLC) with silicic acid (SA)-impregnated paper TLC plates (iTLC-SA, Agilent Technologies, USA). Ethylenediamine tetraacetic acid (EDTA, 50 mM, pH = 5.5) was used as the eluent. […] The iTLC plates were analyzed on an Eckert & Ziegler AR-2000 TLC scanner, and all the data were processed with Eckert & Ziegler WinScan software.

[4] = set-up: method as in PMID 35571797, doi:10.1002/ejic.200700819; conditions: state-of-the-art ligands, computed from literature constants; cited from earlier work
[5] = Acid-mediated dissociation kinetics in aqueous HCl (UV-Vis); format: physicochemical; conditions: room temperature
Description: The dissociation kinetics of the Pb^2+ complexes were studied under pseudo-first-order conditions at room temperature without control of the ionic strength by the addition of a concentrated aqueous solution of HCl (0.01 to 1 M) to aqueous solutions of the preformed complexes. The concentration of the Pb^2+ complexes after the H^+ addition was 1.0 × 10^–4 M. The dissociation reaction was followed by the decreasing intensity of the absorption band of the complexes at the characteristic wavelength (Table S2) using the same apparatus described for the formation kinetic measurements (vide supra).
The data were processed and fitted using the equation lnAt = lnA0 – ^dkobst, where At and A0 are the absorbances at time t and at the beginning of the reaction and ^dkobs is the observed dissociation rate constant. The corresponding half-life was obtained from the equation t1/2 = ln(2)/^dkobs.

[6] = set-up: method as in PMID 33527221; conditions: cited from earlier work
[7] = Direct in-cell pH-potentiometric titrations; format: physicochemical; conditions: pH-potentiometry, I = 0.15 M NaNO3, T = 25 °C
Experimental: Nitric acid (HNO3) solutions were prepared at ∼10^–1 M by dilution of the concentrated acid (Aristar - VWR Chemicals, 69%) and standardized against sodium carbonate (Aldrich, 99.95–100.5%). Carbonate-free sodium hydroxide (NaOH) solutions were prepared at ∼10^–1 M from commercial pellets (Fluka, 99% min) using freshly boiled ultrapure water and standardized using the previously standardized acid. […] Pb^2+ solutions were preprepared from analytical-grade nitrate salt (Pb(NO3)2, Sigma-Aldrich, 99%) and standardized using complexometric titrations with ethylenediaminetetraacetic acid (EDTA) with xylenole orange as an indicator. The ionic strength (I) was fixed to 0.15 M using sodium nitrate (NaNO3) as background electrolytes. All of the experiments described below were repeated at least in triplicate.
Direct (in-cell) pH-potentiometric titrations were carried out with an automated Metrohm 765 Dosimat titrating system using a Metrohm 713 pH meter. […]
All equilibrium data were processed using the least-squares fitting program PITMAP as described in our previous works.[2],[4],[28] […] The refinements of log β included the previously determined ligand protonation constants and the Pb^2+ hydrolysis products whose equilibrium constants were fixed to the literature values.[27],[39] […] The errors quoted are the standard deviations of the overall stability constants calculated by the PITMAP program.

With `CSCCN1CCN(CCSC)CCN(CCSC)CCN(CCSC)CC1` [DO4S, 1,4,7,10-tetrakis[2-(methylsulfanyl)ethyl]-1,4,7,10-tetraazacyclododecane] the “Pb^2+ complex formation” value [1] was “No complex formation was detected”, the “time to reach equilibrium of Pb^2+ complexation” value (from here on “time to reach equilibrium”) [1] was 24 h and the “reaction time of Pb^2+ complexation” value ([1]; pH = 7.4, room temperature) was 1 h. The “log β, Pb^2+ + L ⇋ [PbL]” value [2] was 12.3 ± 0.1, the “pPb = −log[Pb^2+]free” value [2] was 10.2 and the “pPb* (−log of free Pb^2+ plus hydrolysis products)” value [2] was 10.0. For the same compound, the “RCI of [^203Pb]Pb^2+” value [3] was 35%, the “radiochemical incorporation (RCI) of [^203Pb]Pb^2+” value (shortened to “radiochemical incorporation (RCI)”) ([3]; ligand 10^–4 M, 1 h) was 81 ± 10% and 81% and the “radiochemical incorporation (RCI)” value ([3]; ligand 10^–7 M, 1 h) was 1.4 ± 0.4%.
For `NC(=O)CN1CCN(CC(N)=O)CCN(CC(N)=O)CCN(CC(N)=O)CC1` [TCMC, 1,4,7,10-tetraaza-1,4,7,10-tetra-(2-carbamoylmethyl)-cyclododecane, reference compound], the pPb [4] is given as over 18, the “effect of a change in reaction time on RCI” value (“effect of a change” for short) [3] is given as “no effect” and the “radiochemical incorporation (RCI)” value ([3]; ligand 10^–7 M, 1 h) is given as 41 ± 1%. For the same compound, the “radiochemical incorporation (RCI)” value ([3]; ligand concentrations higher than 10^–6 M) was “quantitative”.
With `CSCCN1CCNCCN(CCSC)CCN(CCSC)CC1.[Pb+2]` [[Pb(DO3S)]^2+] the t1/2 acid-assisted dissociation ([5]; CHCl 0.01 M) was 12 ± 2 min, the “^dkobs acid-assisted dissociation” value ([5]; CHCl 0.1 M) was 1.5 ± 0.3 min^–1 and the t1/2 acid-assisted dissociation ([5]; CHCl 0.1 M) was 0.47 ± 0.09 min. For the same compound, the t1/2 acid-assisted dissociation ([5]; CHCl 1.0 M) was “^b (Instantaneous decomplexation during the reagent mixing time.)”.
In the case of `O=C(O)CN1CCN(CC(=O)O)CCN(CC(=O)O)CCN(CC(=O)O)CC1` [DOTA, 1,4,7,10-tetraazacyclododecane-1,4,7,10-tetraacetic acid], the “RCI of [^203Pb]Pb^2+” value ([6]; ligand 10^–4 M) is listed as 96 ± 1%, the “RCI of [^203Pb]Pb^2+” value ([6]; ligand 10^–5 M) is listed as 76 ± 9% and the “RCI of [^203Pb]Pb^2+” value ([6]; ligand 10^–6 M) is listed as 3 ± 1%. For the same compound, the “RCI of [^203Pb]Pb^2+” value ([6]; ligand 10^–7 M) was 1.5 ± 0.2% and the pPb [4] was 20.
In the case of `CSCCN1CCCN(CCSC)CCN(CCSC)CCCN(CCSC)CC1` [TE4S, 1,4,8,11-tetrakis[2-(methylsulfanyl)ethyl]-1,4,8,11-tetrazacyclotetradecane], the “ability to complex Pb^2+” value [1] is reported as “not be able to complex Pb^2+”, the “RCI of [^203Pb]Pb^2+ on heating” value ([3]; ligand 10^–4 M) is reported as “only vaguely improved” and the “radiochemical incorporation (RCI)” value ([3]; ligand 10^–4 M, 1 h) is reported as “no radiometal incorporation was observed”.
With `CSCCN1CCCN(CCSC)CCCN(CCSC)CCC1` [TACD3S, 1,5,9-tris[2-(methylsulfanyl)ethyl]-1,5,9-triazacyclododecane] the “ability to complex Pb^2+” value [1] was “not be able to complex Pb^2+”, the “RCI of [^203Pb]Pb^2+ on heating” value ([3]; ligand 10^–4 M) was “only vaguely improved” and the “radiochemical incorporation (RCI)” value ([3]; ligand 10^–4 M, 1 h) was “no radiometal incorporation was observed”.
For `CSCCN1CCNCCN(CCSC)CCN(CCSC)CC1` [DO3S, 1,4,7-tris[2-(methylsulfanyl)ethyl]-1,4,7,10-tetraazacyclododecane], the “Pb^2+ complex formation” value [1] was “No complex formation was detected”, the “time to reach equilibrium” value [1] was 6 h and the “log β, Pb^2+ + L ⇋ [PbL]” value [2] was 14.2 ± 0.1. The “pPb = −log[Pb^2+]free” value [2] was 11.3, the “pPb* (−log of free Pb^2+ plus hydrolysis products)” value [2] was 11.0 and the “RCI of [^203Pb]Pb^2+” value [3] was 65%. The “radiochemical incorporation (RCI)” value ([3]; ligand 10^–4 M, 1 h) was 88 ± 1% and 88% and the “radiochemical incorporation (RCI)” value ([3]; ligand 10^–7 M, 1 h) was 2 ± 1%.
With `CSCCN1CCN(CC(=O)O)CCN(CCSC)CCN(CC(=O)O)CC1` [DO2A2S, 1,7-bis[2-(methylsulfanyl)ethyl]-1,4,7,10-tetraazacyclododecane-4,10-diacetic acid] the “time to reach equilibrium” value [1] was “practically instantaneous”, the “log β, Pb^2+ + H^+ + L^2– ⇋ [PbHL]^+” value [7] was 20.89 ± 0.07 ^c and the “log β, Pb^2+ + L^2– ⇋ [PbL]” value [7] was 18.2 ± 0.1. The “log β, Pb^2+ + L ⇋ [PbL]” value [2] was 18.3 ± 0.1, the “pPb = −log[Pb^2+]free” value [2] was 15.7 and the “pPb* (−log of free Pb^2+ plus hydrolysis products)” value [2] was 15.4. For the same compound, the “effect of a change” value [3] was “no effect”, the “radiochemical incorporation (RCI)” value ([3]; ligand 10^–4 M, 1 h) was over 90% and the “radiochemical incorporation (RCI)” value ([3]; ligand 10^–5 M, 1 h) was over 90%. For the same compound, the “radiochemical incorporation (RCI)” value ([3]; ligand 10^–6 M, 1 h) was 68 ± 1%, the “radiochemical incorporation (RCI)” value ([3]; ligand 10^–7 M, 1 h) was 56 ± 4% and the “radiochemical incorporation of [^203Pb]Pb^2+” value [3] was “quantitative radiochemical incorporation”.
For `CSCCN1CCCN(CCSC)CCN(CCSC)CCN(CCSC)CC1` [TRI4S, 1,4,7,10-tetrakis[2-(methylsulfanyl)ethyl]-1,4,7,10-tetrazacyclotridecane], the “ability to complex Pb^2+” value [1] was “not be able to complex Pb^2+”, the “RCI of [^203Pb]Pb^2+ on heating” value ([3]; ligand 10^–4 M) was “only vaguely improved” and the “radiochemical incorporation (RCI)” value ([3]; ligand 10^–4 M, 1 h) was “no radiometal incorporation was observed”.
For “1,4,7-tris[2-(methylsulfanyl)ethyl]-10-acetamido-1,4,7,10-tetraazacyclododecane [DO3SAm]”, the “time to reach equilibrium” value [1] was 1 h, the “log β, Pb^2+ + L ⇋ [PbL]” value [2] was 16.8 ± 0.1 and the “pPb = −log[Pb^2+]free” value [2] was 14.2. For the same compound, the “pPb* (−log of free Pb^2+ plus hydrolysis products)” value [2] was 13.9, the “effect of a change” value [3] was “no effect” and the “radiochemical incorporation (RCI)” value ([3]; ligand 10^–4 M, 1 h) was over 90%. The “radiochemical incorporation (RCI)” value ([3]; ligand 10^–5 M, 1 h) was over 90%, the “radiochemical incorporation (RCI)” value ([3]; ligand 10^–6 M, 1 h) was 68 ± 4% and the “radiochemical incorporation (RCI)” value ([3]; ligand 10^–7 M, 1 h) was 14 ± 4%. For the same compound, the “radiochemical incorporation of [^203Pb]Pb^2+” value [3] was “quantitative radiochemical incorporation”.
